According to article PMC8771711, “Synthesis of Lasalocid-Based Bioconjugates and Evaluation of Their Anticancer Activity” (ACS Omega, 2022):

Legend:
Type in all cases: cell-based
[1] = tested on: SW480, human primary colon cancer cell line; experiment: MTT assay, cytotoxicity in SW480; details: for IC50: MTT, 72 h, mean ± SD; for SW480 SI (selectivity index): SI = IC50 HaCaT / IC50 SW480
Description: (§1) The human cell lines SW480 (primary colon cancer), SW620 (lymph node metastatic colon cancer from the same patient as primary cancer cells), PC3 (metastatic prostate cancer), and HaCaT (immortalized keratinocytes) were obtained from the American Type Culture Collection (ATCC, Rockville, USA). The SW480 and SW620 cells were grown in MEM (ThermoSci, USA), PC3 in RPMI 1640, and HaCaT in DMEM High Glucose (Biowest SAS, France) supplemented with 10% foetal bovine serum (FBS), HEPES (20 mM), and antibiotics (100 U mL^–1 of penicillin and 100 μg mL^–1 of streptomycin). The cells were incubated in a humidified incubator at 37 °C/5% CO2, until 80–90% confluence was reached.
(§2) The cell viability was assessed by using of MTT salt [3-(4,5-dimethylthiazol-2-yl)-2,5-diphenyltetrazolium bromide] converted by mitochondrial dehydrogenase, occurring in living cells. The cells were seeded in 96-well plates at a density of 1 × 10^4 cells per well and allowed to adhere for 24 h at 37 °C in a CO2 humidified incubator. Then, the medium was removed and a fresh medium with various concentrations of tested compounds (from 10 to 120 μM) was added. The untreated cells were used as the control.
(§3) After 72 h incubation, the medium was replaced with 200 μL per well of free serum medium containing 0.5 mg mL^–1 MTT and incubated for 4 h at 37 °C in a CO2 humidified incubator. Subsequently, the medium was removed and dimethyl sulfoxide with isopropanol (1:1) was added to dissolve the formazan crystals. The optical density was measured using a UVM 340 reader (ASYS Hitech GmbH, Austria) at a wavelength of 570 nm. The experiments were repeated three times. The cell viability was calculated as the percent of MTT reduced in treated cells versus control cells (untreated cells). The number of viable cells cultured without tested compounds was assumed as 100%. The decreased relative MTT level indicates decreased cell viability. The IC50 values were estimated using CompuSyn version 1.0.

[2] = tested on: SW620, human metastatic colon cancer cell line; experiment: MTT assay, cytotoxicity in SW620; details: for IC50: MTT, 72 h, mean ± SD; for SW620 SI (selectivity index): SI = IC50 HaCaT / IC50 SW620
Description: as §1, §2, §3

[3] = tested on: HaCaT, human immortalized keratinocyte cell line; experiment: MTT assay, cytotoxicity in HaCaT; details: 72 h, mean ± SD, nontumor cells
Description: as §1, §2, §3

[4] = tested on: PC3, human prostate cancer cell line; experiment: MTT assay, cytotoxicity in PC3; details: for IC50: MTT, 72 h, mean ± SD; for PC3 SI (selectivity index): SI = IC50 HaCaT / IC50 PC3
Description: as §1, §2, §3

SMILES | IC50 ([1]; Homo sapiens, SW480) | SW480 SI (selectivity index) [1] | IC50 ([2]; Homo sapiens, SW-620) | SW620 SI (selectivity index) [2] | IC50 ([3]; Homo sapiens, HaCaT) | IC50 ([4]; Homo sapiens) | PC3 SI (selectivity index) [4] | IC50 [1] | IC50 [2] | IC50 [3] | IC50 [4]
O=c1[nH]c(=O)n(CCOCCBr)cc1F [Compound 3, 1-(2-(2-Bromoethoxy)ethyl)-5-fluorouracil] | 55 ± 3.5 µM | 1.9 | 47 ± 3.8 µM | 2.2 | 104 ± 2.2 µM | 42 ± 2.3 µM | 2.5 |  |  |  | 
CC[C@@H](C(=O)[C@@H](C)[C@@H](O)[C@H](C)CCc1ccc(C)c(O)c1C(=O)OCCCCCCBr)[C@H]1O[C@](CC)([C@H]2CC[C@](O)(CC)[C@H](C)O2)C[C@@H]1C [Compound 5] | 42 ± 1.6 µM | 1.2 | 34 ± 1.4 µM | 1.5 | 50 ± 0.34 µM | 18 ± 0.98 µM | 2.8 |  |  |  | 
O=c1cc(CCl)occ1O [Compound 4] | 28 ± 1.8 µM | 1.4 | 20 ± 2.6 µM | 2.0 | 39 ± 0.45 µM | 20 ± 1.5 µM | 2.0 |  |  |  | 
O=C(CCCCCBr)[c-]1cccc1.[Fe+2].c1cc[cH-]c1 [FER, (6-bromo-1-oxohexyl)ferrocene, reference compound] |  | 1.9 |  | 2.1 |  |  | 1.9 | 61 ± 0.98 µM | 55 ± 0.7 µM | 115 ± 0.95 µM | 59 ± 0.78 µM
CC[C@@H](C(=O)[C@@H](C)[C@@H](O)[C@H](C)CCc1ccc(C)c(O)c1C(=O)OCCOCCn1cc(F)c(=O)[nH]c1=O)[C@H]1O[C@](CC)([C@H]2CC[C@](O)(CC)[C@H](C)O2)C[C@@H]1C [Compound 10, LAS–5-Fluorouracil Conjugate] | 22 ± 2.2 µM | 0.5 | 11 ± 1.4 µM | 1.1 | 12 ± 0.59 µM | 12 ± 0.13 µM | 1.0 |  |  |  | 
O=c1[nH]cc(F)c(=O)[nH]1 [5FU, 5-fluorouracil, reference compound] | 43 ± 3.1 µM | 1.2 | 39 ± 1.2 µM | 1.3 | 52 ± 1.6 µM | 11 ± 0.97 µM | 4.7 |  |  |  | 
CC[C@@H](C(=O)[C@@H](C)[C@@H](O)[C@H](C)CCc1ccc(C)c(O)c1C(=O)OC[C@H]1O[C@@H](n2cc(F)c(=O)[nH]c2=O)C[C@@H]1O)[C@H]1O[C@](CC)([C@H]2CC[C@](O)(CC)[C@H](C)O2)C[C@@H]1C [Compound 11, LAS–Floxuridine Conjugate] | 31 ± 1.2 µM | 1.6 | 19 ± 2 µM | 2.6 | 50 ± 0.59 µM | 13 ± 1.9 µM | 3.8 |  |  |  | 
O=c1[nH]c(=O)n(CCCCBr)cc1F [Compound 1] | 36 ± 0.79 µM | 5.0 | 75 ± 2.7 µM | 2.4 | 179 ± 4.3 µM | 308 ± 5.2 µM | 0.6 |  |  |  | 
BrCCC[P+](c1ccccc1)(c1ccccc1)c1ccccc1.[Br-] [TPP, (3-bromopropyl)triphenylphosphonium bromide, reference compound] | 46 ± 1.1 µM | 0.6 | 39 ± 2.5 µM | 0.7 | 26 ± 0.96 µM | 31 ± 0.98 µM | 0.8 |  |  |  | 
C=C(C)[C@@H]1CC[C@]2(C(=O)O)CC[C@]3(C)[C@H](CC[C@@H]4[C@@]5(C)CC[C@H](O)C(C)(C)[C@@H]5CC[C@]43C)[C@@H]12 [BET, betulinic acid, reference compound] | 105 ± 7 µM | 1.0 | 65 ± 3.7 µM | 1.7 | 108 ± 1.3 µM | 71 ± 5.9 µM | 1.5 |  |  |  | 
O=c1cc(CO)occ1O [KOJ, kojic acid, reference compound] | 119 ± 2.8 µM | 1.9 | 94 ± 4 µM | 2.4 | 225 ± 7.1 µM | 56 ± 3.3 µM | 4.0 |  |  |  | 
CC[C@@H](C(=O)[C@@H](C)[C@@H](O)[C@H](C)CCc1ccc(C)c(O)c1C(=O)OCCCCCCn1cc(F)c(=O)[nH]c1=O)[C@H]1O[C@](CC)([C@H]2CC[C@](O)(CC)[C@H](C)O2)C[C@@H]1C [Compound 9, LAS–5-Fluorouracil Conjugate] | 66 ± 2.5 µM | 0.7 | 55 ± 1.5 µM | 0.8 | 44 ± 1.8 µM | 36 ± 0.79 µM | 1.2 |  |  |  | 
C=C(C)[C@@H]1CC[C@]2(C(=O)OCCCCCCOC(=O)c3c(CC[C@@H](C)[C@H](O)[C@H](C)C(=O)[C@H](CC)[C@H]4O[C@](CC)([C@H]5CC[C@](O)(CC)[C@H](C)O5)C[C@@H]4C)ccc(C)c3O)CC[C@]3(C)[C@H](CC[C@@H]4[C@@]5(C)CC[C@H](O)C(C)(C)[C@@H]5CC[C@]43C)[C@@H]12 [Compound 6, LAS–Betulinic Acid Conjugate] | 320 ± 8.8 µM | 0.05 | 40 ± 2.1 µM | 0.4 | 15 ± 0.59 µM | 200 ± 1.8 µM | 0.1 |  |  |  | 
O=c1[nH]c(=O)n(CCCCCCBr)cc1F [Compound 2, 1-(6-Bromohexyl)-5-fluorouracil] | 103 ± 3.4 µM | 2.2 | 36 ± 0.83 µM | 6.2 | 224 ± 2.8 µM | 3.1 ± 0.15 µM | 73 |  |  |  | 
COc1cccc2c1C(=O)c1c(O)c3c(c(O)c1C2=O)C[C@@](O)(C(=O)CO)C[C@@H]3O[C@H]1C[C@H](N)[C@H](O)[C@H](C)O1 [DOX, doxorubicin, reference compound] | 0.75 ± 0.1 µM |  |  |  | 0.29 ± 0.1 µM | 0.59 ± 0.02 µM |  |  |  |  | 
O=c1[nH]c(=O)n([C@H]2C[C@H](O)[C@@H](CO)O2)cc1F [FLO, floxuridine, reference compound] | 16 ± 1.2 µM | 2.4 | 8.8 ± 0.69 µM | 4.3 | 38 ± 0.72 µM | 14 ± 0.57 µM | 2.7 |  |  |  | 
